Assay type in all cases: functional
Assay [1] has as its target Tyrosine-protein kinase JAK2 (Homo sapiens, UniProt O60674).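 Further: JAK2 tested as one member of a kinase panel.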
For assay [2], the target named is 5'-AMP-activated protein kinase catalytic subunit alpha-1 (Homo sapiens, UniProt Q13131).
The target of assay [3] is Serine/threonine-protein kinase D2 (Homo sapiens, UniProt Q9BZL6).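 Further: measured against PRKD2 as one member of a kinome-wide kinase profiling panel.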
Assay [4] has as its target T1, Serine/threonine-protein kinase D3 (Homo sapiens, UniProt O94806).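 Further: determined within a kinase panel screen, with PRKCN as the panel member.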
T1 sequence (O94806 whole entry): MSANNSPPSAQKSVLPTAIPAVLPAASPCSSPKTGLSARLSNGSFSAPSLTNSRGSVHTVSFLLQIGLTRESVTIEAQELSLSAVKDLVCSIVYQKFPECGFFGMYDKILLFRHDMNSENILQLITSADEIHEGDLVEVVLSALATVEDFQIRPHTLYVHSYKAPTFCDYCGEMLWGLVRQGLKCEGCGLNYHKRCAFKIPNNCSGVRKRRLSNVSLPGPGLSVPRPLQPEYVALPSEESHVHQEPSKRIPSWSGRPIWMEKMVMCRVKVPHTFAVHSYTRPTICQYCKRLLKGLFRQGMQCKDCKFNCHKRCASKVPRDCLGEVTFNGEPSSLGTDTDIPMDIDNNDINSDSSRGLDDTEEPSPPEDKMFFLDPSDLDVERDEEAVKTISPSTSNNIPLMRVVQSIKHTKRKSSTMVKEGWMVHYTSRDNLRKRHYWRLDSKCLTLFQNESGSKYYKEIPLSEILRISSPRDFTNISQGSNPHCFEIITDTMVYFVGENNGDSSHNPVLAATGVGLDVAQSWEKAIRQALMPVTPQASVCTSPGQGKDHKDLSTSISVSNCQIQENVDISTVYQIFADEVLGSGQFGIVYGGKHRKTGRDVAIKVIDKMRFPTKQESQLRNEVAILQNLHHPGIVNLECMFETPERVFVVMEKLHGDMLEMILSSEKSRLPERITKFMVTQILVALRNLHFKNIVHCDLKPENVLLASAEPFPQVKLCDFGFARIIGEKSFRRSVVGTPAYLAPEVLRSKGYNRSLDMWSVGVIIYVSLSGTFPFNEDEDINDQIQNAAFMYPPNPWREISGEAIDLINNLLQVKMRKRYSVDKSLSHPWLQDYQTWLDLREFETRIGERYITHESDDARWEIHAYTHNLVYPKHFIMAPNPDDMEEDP

Assay [5] has as its target Mitogen-activated protein kinase 8 (Homo sapiens, UniProt P45983).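 Further: value comes from one member of a kinome-wide kinase profiling panel.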
The target in assay [6] is Serine/threonine-protein kinase pim-1 (Homo sapiens, UniProt P11309).
The target in assay [7] is Tyrosine-protein kinase BTK (Homo sapiens, UniProt Q06187).
In assay [8] the target is T2, Mitogen-activated protein kinase kinase kinase kinase 2 (Homo sapiens, UniProt Q12851).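 Further: measured as one member of a kinome-wide kinase panel, with MAP4K2 as the panel entry.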
T2 sequence (Q12851 whole entry): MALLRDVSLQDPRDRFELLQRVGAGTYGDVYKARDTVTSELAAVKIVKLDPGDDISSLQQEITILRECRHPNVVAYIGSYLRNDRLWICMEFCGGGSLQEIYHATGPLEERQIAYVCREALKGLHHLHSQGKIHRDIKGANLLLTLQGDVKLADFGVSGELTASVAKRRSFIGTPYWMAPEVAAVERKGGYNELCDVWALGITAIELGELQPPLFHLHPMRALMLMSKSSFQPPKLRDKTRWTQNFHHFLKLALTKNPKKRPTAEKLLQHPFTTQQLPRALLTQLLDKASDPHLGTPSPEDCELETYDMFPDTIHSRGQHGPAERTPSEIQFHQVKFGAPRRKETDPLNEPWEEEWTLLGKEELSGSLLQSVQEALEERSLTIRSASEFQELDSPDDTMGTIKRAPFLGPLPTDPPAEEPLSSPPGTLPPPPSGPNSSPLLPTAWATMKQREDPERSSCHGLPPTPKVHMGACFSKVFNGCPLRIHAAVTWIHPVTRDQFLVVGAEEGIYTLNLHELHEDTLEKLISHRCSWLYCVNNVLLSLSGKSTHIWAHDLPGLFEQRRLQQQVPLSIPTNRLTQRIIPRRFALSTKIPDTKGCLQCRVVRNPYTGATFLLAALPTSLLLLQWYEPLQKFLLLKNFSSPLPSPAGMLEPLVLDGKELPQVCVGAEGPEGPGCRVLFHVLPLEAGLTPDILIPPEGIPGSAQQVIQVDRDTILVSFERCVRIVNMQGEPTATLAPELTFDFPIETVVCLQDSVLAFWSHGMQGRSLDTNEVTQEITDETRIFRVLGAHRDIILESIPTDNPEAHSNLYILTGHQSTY

Assay [9] concerns the target G protein-coupled receptor kinase 5 (Homo sapiens, UniProt P34947). Kind of assay: Navigating the Kinome. Panel member name: GPRK5.
Assay [10] concerns the target Platelet-derived growth factor receptor alpha (Homo sapiens, UniProt P16234). The assay can be described thus: Navigating the Kinome. Panel member name: PDGFRA.
Assay [11] has as its target Aurora kinase B (Homo sapiens, UniProt Q96GD4).
Assay [12] deals with cAMP-dependent protein kinase catalytic subunit alpha (Homo sapiens, UniProt P17612).
For assay [13], the target named is Dual specificity mitogen-activated protein kinase kinase 2 (Homo sapiens, UniProt P36507). The assay can be described thus: Navigating the Kinome. Panel member name: MAP2K2.
Assay [14] has as its target T3, Caspase-3 (Homo sapiens, UniProt P42574).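 Further: Dose-response selectivity test against caspase-3 for candidate inhibitors of sentrin-specific proteases (SENPs).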
T3 sequence (P42574 whole entry): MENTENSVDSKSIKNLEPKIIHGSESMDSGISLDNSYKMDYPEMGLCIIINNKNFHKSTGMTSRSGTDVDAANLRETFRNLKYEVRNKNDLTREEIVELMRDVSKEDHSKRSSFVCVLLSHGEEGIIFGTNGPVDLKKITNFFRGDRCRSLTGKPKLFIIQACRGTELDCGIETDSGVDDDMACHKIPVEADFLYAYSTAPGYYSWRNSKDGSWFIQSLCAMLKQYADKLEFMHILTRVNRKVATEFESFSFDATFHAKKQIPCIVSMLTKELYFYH

The source made the active and inactive calls.

Sequence of Mitogen-activated protein kinase 8 (P45983 whole entry): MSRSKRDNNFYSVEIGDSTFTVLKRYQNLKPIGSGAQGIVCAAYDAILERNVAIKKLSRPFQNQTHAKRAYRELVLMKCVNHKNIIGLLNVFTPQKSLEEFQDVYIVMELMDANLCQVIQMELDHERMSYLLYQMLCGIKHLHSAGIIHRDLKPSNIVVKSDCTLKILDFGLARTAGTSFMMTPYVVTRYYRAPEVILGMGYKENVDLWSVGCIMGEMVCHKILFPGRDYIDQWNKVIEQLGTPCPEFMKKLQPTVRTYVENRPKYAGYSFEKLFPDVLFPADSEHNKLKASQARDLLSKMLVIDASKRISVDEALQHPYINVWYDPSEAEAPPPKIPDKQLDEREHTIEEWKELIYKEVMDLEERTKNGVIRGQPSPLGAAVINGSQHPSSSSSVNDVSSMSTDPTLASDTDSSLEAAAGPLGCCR
Sequence of Serine/threonine-protein kinase pim-1 (P11309 whole entry): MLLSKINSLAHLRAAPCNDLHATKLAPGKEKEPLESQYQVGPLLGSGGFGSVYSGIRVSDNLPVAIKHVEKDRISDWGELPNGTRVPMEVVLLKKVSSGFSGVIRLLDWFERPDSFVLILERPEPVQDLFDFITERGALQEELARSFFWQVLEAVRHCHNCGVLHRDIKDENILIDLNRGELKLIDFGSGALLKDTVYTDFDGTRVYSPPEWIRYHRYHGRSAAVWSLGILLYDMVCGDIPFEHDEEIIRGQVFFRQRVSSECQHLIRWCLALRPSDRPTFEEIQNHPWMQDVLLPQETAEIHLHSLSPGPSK
Sequence of 5'-AMP-activated protein kinase catalytic subunit alpha-1 (Q13131 whole entry): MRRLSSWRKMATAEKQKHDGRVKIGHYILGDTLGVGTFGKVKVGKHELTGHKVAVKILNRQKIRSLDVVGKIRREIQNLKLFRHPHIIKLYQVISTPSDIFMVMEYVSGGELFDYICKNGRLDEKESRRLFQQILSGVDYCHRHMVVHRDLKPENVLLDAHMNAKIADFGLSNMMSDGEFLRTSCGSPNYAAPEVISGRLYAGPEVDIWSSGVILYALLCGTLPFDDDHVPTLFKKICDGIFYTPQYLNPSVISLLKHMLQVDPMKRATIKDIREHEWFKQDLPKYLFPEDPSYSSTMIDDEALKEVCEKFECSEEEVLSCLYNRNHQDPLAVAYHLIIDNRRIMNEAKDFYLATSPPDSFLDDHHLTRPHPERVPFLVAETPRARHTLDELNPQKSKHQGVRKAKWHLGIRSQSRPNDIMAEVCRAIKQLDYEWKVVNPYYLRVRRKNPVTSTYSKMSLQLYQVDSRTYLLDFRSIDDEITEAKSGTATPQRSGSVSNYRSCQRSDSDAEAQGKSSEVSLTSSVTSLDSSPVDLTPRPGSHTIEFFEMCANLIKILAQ
Sequence of Aurora kinase B (Q96GD4 whole entry): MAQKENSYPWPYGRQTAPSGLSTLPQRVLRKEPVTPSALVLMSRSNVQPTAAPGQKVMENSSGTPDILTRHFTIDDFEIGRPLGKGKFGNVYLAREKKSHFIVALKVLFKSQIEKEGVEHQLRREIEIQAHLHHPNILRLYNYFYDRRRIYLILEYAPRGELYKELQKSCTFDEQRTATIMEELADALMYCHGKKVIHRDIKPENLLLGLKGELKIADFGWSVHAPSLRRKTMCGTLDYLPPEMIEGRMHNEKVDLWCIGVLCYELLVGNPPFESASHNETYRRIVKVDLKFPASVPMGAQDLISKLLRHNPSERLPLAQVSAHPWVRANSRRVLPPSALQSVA
Sequence of Dual specificity mitogen-activated protein kinase kinase 2 (P36507 whole entry): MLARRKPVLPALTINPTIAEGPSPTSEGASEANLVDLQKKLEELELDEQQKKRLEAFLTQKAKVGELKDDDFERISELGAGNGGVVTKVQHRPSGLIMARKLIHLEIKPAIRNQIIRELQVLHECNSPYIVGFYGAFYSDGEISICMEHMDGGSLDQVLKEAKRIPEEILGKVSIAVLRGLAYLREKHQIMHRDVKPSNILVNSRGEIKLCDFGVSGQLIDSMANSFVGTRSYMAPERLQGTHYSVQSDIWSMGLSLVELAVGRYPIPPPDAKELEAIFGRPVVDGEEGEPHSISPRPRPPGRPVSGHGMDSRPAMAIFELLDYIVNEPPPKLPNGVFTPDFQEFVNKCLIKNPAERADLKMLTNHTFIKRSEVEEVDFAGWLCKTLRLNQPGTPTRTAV
Sequence of G protein-coupled receptor kinase 5 (P34947 whole entry): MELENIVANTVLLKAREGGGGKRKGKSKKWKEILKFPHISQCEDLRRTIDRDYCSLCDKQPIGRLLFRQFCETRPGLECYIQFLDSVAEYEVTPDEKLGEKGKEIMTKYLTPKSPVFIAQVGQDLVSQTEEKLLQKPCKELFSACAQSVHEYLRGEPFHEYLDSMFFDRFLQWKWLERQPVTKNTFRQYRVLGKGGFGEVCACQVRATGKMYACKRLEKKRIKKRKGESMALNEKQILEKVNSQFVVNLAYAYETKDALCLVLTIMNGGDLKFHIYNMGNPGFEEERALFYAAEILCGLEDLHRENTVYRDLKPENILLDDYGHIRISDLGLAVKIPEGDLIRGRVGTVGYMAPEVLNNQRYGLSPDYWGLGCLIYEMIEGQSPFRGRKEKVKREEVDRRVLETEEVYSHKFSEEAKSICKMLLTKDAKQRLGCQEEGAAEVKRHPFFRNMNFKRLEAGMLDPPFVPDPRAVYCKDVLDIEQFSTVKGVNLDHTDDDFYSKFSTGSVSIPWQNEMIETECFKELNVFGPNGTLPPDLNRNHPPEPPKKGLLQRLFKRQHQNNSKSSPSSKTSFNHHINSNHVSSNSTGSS
Sequence of Tyrosine-protein kinase JAK2 (O60674 whole entry): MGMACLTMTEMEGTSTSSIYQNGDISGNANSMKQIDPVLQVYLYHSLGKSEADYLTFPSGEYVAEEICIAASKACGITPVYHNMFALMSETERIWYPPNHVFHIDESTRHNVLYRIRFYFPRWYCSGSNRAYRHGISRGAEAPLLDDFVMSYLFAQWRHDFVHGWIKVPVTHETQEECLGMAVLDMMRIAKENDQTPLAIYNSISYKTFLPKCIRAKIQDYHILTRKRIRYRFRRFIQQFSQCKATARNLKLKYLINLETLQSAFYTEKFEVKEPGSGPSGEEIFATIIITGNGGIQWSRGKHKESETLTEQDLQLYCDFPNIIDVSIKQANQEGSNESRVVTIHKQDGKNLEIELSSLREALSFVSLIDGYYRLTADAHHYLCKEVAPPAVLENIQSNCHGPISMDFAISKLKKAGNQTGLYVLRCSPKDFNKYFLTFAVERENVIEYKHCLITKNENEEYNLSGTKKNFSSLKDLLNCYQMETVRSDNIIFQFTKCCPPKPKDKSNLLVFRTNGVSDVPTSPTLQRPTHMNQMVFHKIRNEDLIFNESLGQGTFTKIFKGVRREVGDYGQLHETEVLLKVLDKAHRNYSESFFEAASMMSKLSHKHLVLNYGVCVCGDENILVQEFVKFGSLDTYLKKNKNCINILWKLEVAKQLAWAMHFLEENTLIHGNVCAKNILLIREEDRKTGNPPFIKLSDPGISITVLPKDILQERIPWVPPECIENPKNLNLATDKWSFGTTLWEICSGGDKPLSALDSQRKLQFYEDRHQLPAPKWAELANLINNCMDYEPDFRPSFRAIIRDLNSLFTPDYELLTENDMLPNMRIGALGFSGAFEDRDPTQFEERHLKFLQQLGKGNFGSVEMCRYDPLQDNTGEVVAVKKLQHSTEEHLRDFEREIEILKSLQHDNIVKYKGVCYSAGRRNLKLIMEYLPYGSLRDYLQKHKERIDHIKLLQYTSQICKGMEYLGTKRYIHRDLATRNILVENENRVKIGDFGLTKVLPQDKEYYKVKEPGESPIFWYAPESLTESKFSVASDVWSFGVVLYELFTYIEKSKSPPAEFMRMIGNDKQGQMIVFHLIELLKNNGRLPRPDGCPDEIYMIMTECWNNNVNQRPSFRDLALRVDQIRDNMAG
Sequence of Platelet-derived growth factor receptor alpha (P16234 whole entry): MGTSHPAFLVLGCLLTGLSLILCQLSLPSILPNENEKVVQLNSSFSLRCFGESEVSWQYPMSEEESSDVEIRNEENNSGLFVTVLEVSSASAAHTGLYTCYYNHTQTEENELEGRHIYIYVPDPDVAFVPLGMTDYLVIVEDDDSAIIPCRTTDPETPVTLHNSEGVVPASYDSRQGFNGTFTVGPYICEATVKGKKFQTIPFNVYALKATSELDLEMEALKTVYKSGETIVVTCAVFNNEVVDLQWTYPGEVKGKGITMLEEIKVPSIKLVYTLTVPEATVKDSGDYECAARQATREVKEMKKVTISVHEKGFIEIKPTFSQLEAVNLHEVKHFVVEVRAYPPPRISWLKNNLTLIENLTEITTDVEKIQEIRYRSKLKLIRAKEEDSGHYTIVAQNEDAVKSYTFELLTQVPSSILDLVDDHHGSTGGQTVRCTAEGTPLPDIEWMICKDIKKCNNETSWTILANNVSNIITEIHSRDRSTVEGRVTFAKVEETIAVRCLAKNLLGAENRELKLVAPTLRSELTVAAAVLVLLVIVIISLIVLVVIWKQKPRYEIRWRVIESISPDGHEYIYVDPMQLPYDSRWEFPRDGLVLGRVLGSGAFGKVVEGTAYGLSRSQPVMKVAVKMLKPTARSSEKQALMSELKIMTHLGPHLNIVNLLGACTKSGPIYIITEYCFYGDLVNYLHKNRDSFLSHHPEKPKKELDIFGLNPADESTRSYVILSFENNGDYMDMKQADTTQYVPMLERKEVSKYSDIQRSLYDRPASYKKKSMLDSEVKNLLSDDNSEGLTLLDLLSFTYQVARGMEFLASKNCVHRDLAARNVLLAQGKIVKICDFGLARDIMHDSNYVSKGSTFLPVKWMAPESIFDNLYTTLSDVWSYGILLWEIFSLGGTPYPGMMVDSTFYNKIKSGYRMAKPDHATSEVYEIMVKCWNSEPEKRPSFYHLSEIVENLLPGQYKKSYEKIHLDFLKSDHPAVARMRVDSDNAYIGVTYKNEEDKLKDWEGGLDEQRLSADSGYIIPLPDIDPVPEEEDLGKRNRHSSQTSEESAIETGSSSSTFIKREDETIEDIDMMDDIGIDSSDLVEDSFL

As to `OC1CCC(Nc2nc(Cl)cc(-c3c[nH]c4ncccc34)n2)CC1` (stereo not drawn), the Ki in assay [1] is 200 nM (active); in assay [2], 126 nM (active); in [3], 20 nM (active); in assay [4], 15.8 nM (active); in [5], 251 nM (active); in assay [6] it was 1000 nM (active). For the same molecule, the Ki was > 1260 nM (inactive) in assay [7]; 39.8 nM (active) in assay [8]; 1580 nM (active) in [9]; 1000 nM (active) in assay [10]; 501 nM (active) in assay [11]; 31.6 nM (active) in assay [12]. Further, the Ki in assay [13] is 50.1 nM (active). Also, the negative-log Ki (pKi) is listed as 6.7 in assay [1]; 6.9 in [2]; 7.7 in assay [3]; 7.8 in [4]; 6.6 in assay [5]; 6 in assay [6]. The pKi in [8] is reported as 7.4; in assay [9] it was 5.8; in assay [10] it was 6; in assay [11], 6.3; in assay [12], 7.5; in [13] it was 7.3.
For the molecule `O=C(COC(=O)c1ccc([N+](=O)[O-])s1)Nc1ccc(F)cc1`, the IC50 in assay [14] is 8430 nM (active).
Take `COc1cccc(CNC(=O)c2cnc(-c3ccncc3)nc2)c1`: the Ki in assay [1] was > 2510 nM (inactive); in [2] it was > 3160 nM (inactive); in [4], > 3980 nM (inactive); in [5] it was > 5010 nM (inactive); in [6], > 6310 nM (inactive); in assay [7], > 6310 nM (inactive). The Ki in assay [8] is > 2510 nM (inactive); in [9] it was 3980 nM (active); in assay [10] it was > 2510 nM (inactive); in assay [11], > 3980 nM (inactive); in [12] it was 316 nM (active); in assay [13], > 3980 nM (inactive).

These data come from ChEMBL document CHEMBL1201862, “PubChem BioAssay data set” (2004).
